What was measured:
[1] = system: CD20 on freshly isolated B cells; test: CD20/CD21 MFI ratio on freshly isolated B cells of atorvastatin-treated patients; assay type: in vivo, human; details: day 3 vs day 0 after single dose 80 mg atorvastatin; CD20 detected with the named mAb
From the text: CD21 is a protein expressed by B cells. Its expression has been shown unaffected upon cholesterol depletion of a B cell line (Daudi) and for freshly isolated B cell enriched cell population of two independent donors (FIG. 26). Therefore, CD21 mAb binding is considered as an indicator for the amount of B cells present per staining. The MFI of CD20 mAb and CD21 mAb binding was identified by gating on viable cells in the lymphogate (FSC vs SSC), and subsequently on CD21+ cells when analyzing the MFI for the CD20 mAb. In order to be able to correlate the CD20 expression measured in between days CD20 mAb binding was quantitated relative to CD21 mAb binding within the same staining by calculating the ratio of MFI of CD20/CD21 mAb.
To determine CD20 and CD21 expression on B cells of hypercholesterolemic patients treated with atorvastatin PBMC were isolated out of whole blood drawn on day 0 (pre-treatment) and day 3 after treatment (as described in Example 7). Freshly isolated B cells were stained with different FITC-conjugated CD20 mAbs 2F2, 11B8, B1 (GlaxoSmithKline, Stevenage, United Kingdom) and PE-conjugated CD21 mAb (B-Ly4, BD Pharmingen, Franklin Lakes, N.J.) by 30 minutes incubation at room temperature in the dark. Cells were washed and mAb binding intensity (MFI) was analysed using a FACS Calibur (Becton Dickinson, Breda, The Netherlands).

Daudi cells = test: CDC of Daudi cells, MTT analysis; assay type: cell-based, human; details: increased concentrations of MβCD
Protocol: CDC was induced by incubating B cells with anti-CD20 mAb (as described in Example 2). After 1-hour incubation (3-(4,5-dimethylthiazol-2-yl)-2,5-diphenyltetrazolium bromide (MTT) solution (5 mg/ml, Roche, Diagnostics, Almere, The Netherlands) was added to each well (flat-bottom microtiter plates; Nunc, Rochester, N.Y.). The reaction was stopped after 4 hours of incubation at 37° C. by the addition of 100 μl of 20% SDS (Roche Diagnostics, Almere, The Netherlands). After overnight incubation at 37° C. the absorbance of the samples was measured at 550-525 nm using an Elisa reader (EL808x, Biotek instruments, Highland park, Vt., USA). Cytotoxicity was expressed as a relative viability of the stimulated cells compared to cells incubated with medium only and was calculated as follows: relative viability=[(Ae−Ab)/(Ac−Ab)]*100, where Ab is the background absorbance, Ae is experimental absorbance of the lysed cells and Ac is the absorbance of untreated cells. The viability was expressed as percentage survival in comparison to non-cholesterol depleted cells (control).

[2] = system: B cell enriched cell population of a healthy volunteer; test: Anti-CD20-induced CDC of freshly isolated primary B cells; assay type: cell-based, human; details: for primary B cell population killed / cell lysis: MβCD-treated, saturating conditions (≧10 μg/ml); for cell lysis upon cholesterol depletion: primary B cells treated with MβCD
Protocol: Blood was obtained from a donor (either from a healthy volunteer or from patients included in clinical trials related to 2F2). Informed consent was provided according to the Declaration of Helsinki. The blood was used to isolate peripheral blood mononuclear cells (PMBC) via […] gradient separation. Briefly, 10 ml of whole blood was supplemented with 20-25 ml PBS (Braun, Oss, Netherlands). 13 ml of Lymphocyte Separation Medium (Lonza, Verviers, Belgium) was pipetted carefully underneath the diluted whole blood solution. The solution was centrifuged at 2000 rpm for 20 minutes whereupon the interphase containing the PBMC was collected. The cells were washed twice in PBS, counted with trypan blue and suspended in test medium (RMPI 1640/pen strep/0.1% BSA) at a concentration of 2-4×10^6 viable cells/ml. Cells were used to enrich B cells via negative depletion as described in Example 8.
PBMC (obtained as described under Example 17) were used to enrich for B cells using the Dynal B cell negative isolation kit (Dynal, Invitrogen, Carlsbad, Calif.) according to manufacturer's instruction. In brief, PBMC were washed and incubated for 20 minutes with mouse monoclonal antibodies directed against CD2, CD14, CD16, CD36, CD43 or CD235a at 4° C. Magnetic beads coated with human IgG4 against mouse monoclonal antibodies were added and the mixture was again incubated for 15 minutes at 4° C. After incubation mouse mAb-stained cells were separated from the mixture using a magnet. The remaining cells are considered as the B cell enriched population.
Human B cells were isolated from whole blood of a healthy volunteer (donor A) as described under Example 17 and Example 18.
The B cell enriched cell population of donor A and Daudi cells were incubated with MβCD as described under Example 2 and cell surface protein expression and sensitivity for CDC was measured.

RAJI cells = test: Rituximab-induced ADCC of RAJI cells, 51Cr-release assay with PBMC; assay type: cell-based, human; details: for EC50 for rituximab-mediated ADCC: E:T 100:1
Protocol: In the antibody-dependent cellular cytotoxicity (ADCC) assay target B cells are labelled with radioactive chromium (^51Cr), and incubated with antibody and effector cells. Upon lysis the target cells release ^51Cr which can be measured by separation of the supernatant from the cells and quantification using a scintillation counter.
RAJI cells (obtained from ECACC, Porton Down, United Kingdom) served as target cells, and were cultured in RPMI 1640 supplemented with 10% heat-inactivated cosmic calf serum (CCS), 1 U/ml penicillin, 1 μg/ml streptomycin, and 4 mM L-glutamine (all from Invitrogen, Carlsbad, Calif.). RAJI cells were either non-treated or cholesterol-depleted using lovastatin (10 μM) as described in Example 3, and re-suspended in test medium to a concentration of 2×10^6 viable cells/ml.
RAJI cells were labeled with 20 μCi^51Cr (Amersham Biosciences, Uppsala, Sweden) for 2 hours. After extensive washing in medium, the cells were adjusted to 2×10^5 cells/ml. […] Assays were started by adding ^51Cr-labeled RAH cells (50 μl) giving a final volume of 200 >l. For isolated effector cells, containing 20% NK cells, an effector to target (E:T) ratio of 100:1 was used. After incubation (4 hours, 37° C.), assays were stopped by centrifugation, and ^51Cr release from triplicates was measured in counts per minute (cpm) in a scintillation counter. Percentage of cellular cytotoxicity was calculated using the following formula:
% specific lysis=(experimental cpm−basal cpm)/(maximal cpm−basal cpm)×100
with maximal ^51Cr release determined by adding TritonX-100 (5% final concentration) to target cells, and basal release measured in the absence of sensitizing antibodies and effector cells.

| Substance | average decrease in CD20/CD21 MFI ratio [1] | mAb-induced CDC (cell survival) (Daudi cells) | primary B cell population killed / cell lysis [2] | lysis of B cell enriched cell population ([2]; non-depleted primary B cells, donor A) | cell lysis upon cholesterol depletion [2] | EC50 for rituximab-mediated ADCC (RAJI cells; control (non-treated) RAJI cells) | EC50 for rituximab-mediated ADCC (RAJI cells; lovastatin-treated (10 μM) RAJI cells) | increase of EC50 for rituximab-mediated ADCC (RAJI cells; lovastatin-treated vs control cells) |
| --- | --- | --- | --- | --- | --- | --- | --- | --- |
| 2F2: human anti-CD20 mAb, VH SEQ ID NO:1, VL SEQ ID NO:2, disclosed in WO 2004/035607 | 18% | diminished | approximately 75% | could be lysed | reduced |  |  |  |
| rituximab: anti-CD20 antibody Rituxan/MabThera, type I |  |  | 20-25% |  | reduced | 0.024 µg/mL | 0.082 µg/mL | ~4 fold |
